Source: ChEMBL document CHEMBL1144348, “Mechanism of cytotoxicity of copper(I) complexes of 1,2-bis(diphenylphosphino)ethane” (J Med Chem, 2005)
Values after ≈ are worked out from the molar mass of the structure shown.

Key:
[1] = test system: NCI-H460; assay: Inhibitory concentration against human lung carcinoma cell line H460 after 48 hr in MTT assay; type: functional, cell-based; conditions: NCI-H460, 48 h
[2] = test system: NCI-H460; assay: Percent of cells with COMET measured after single cell gel electrophoresis with the compound; type: functional, Homo sapiens

Structure (SMILES)	IC50 [1]	Activity [2]
c1ccc(P(CCP(c2ccccc2)c2ccccc2)c2ccccc2)cc1	0.25 µg/mL (≈ 0.627 µM)	
COc1cccc2c1C(=O)c1c(O)c3c(c(O)c1C2=O)C[C@@](O)(C(=O)CO)C[C@@H]3O[C@H]1C[C@H](N)[C@H](O)[C@H](C)O1 [DOXORUBICIN]	0.05 µg/mL (≈ 0.092 µM)	93.55%
